From patent publication US8785457B2 (Cellzome Limited, priority 2009, dated 2014)

Legend:
[1] = biological target: T1, PI3 Kgamma (PI3 Kg) (Homo sapiens, UniProt P48736); assay: kinobeads assay, PI3Kgamma; type: binding; details: Further Kinobeads Data; read-out: PI3Kg
T1 construct: endogenous in cells; host or cells: cell lysate
Method in brief: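 Test compounds at various concentrations were added to cell lysate together with beads carrying an immobilized phenylmorpholin-chromen ligand, competing for kinase binding. Captured proteins were separated, eluted and quantified by multiplexed immunodetection; IC50 values came from dose-response curves for each kinase.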

[2] = biological target: T2, PI3K delta (PI3 Kd) (Homo sapiens, UniProt O00329); assay: kinobeads assay, PI3K delta; type: binding; details: Further Kinobeads Data; read-out: PI3Kd
T2 construct: endogenous in cells; host or cells: Jurkat, clone E6-1 (ATCC TIB-152) cell lysate
T2 sequence (O00329 whole entry): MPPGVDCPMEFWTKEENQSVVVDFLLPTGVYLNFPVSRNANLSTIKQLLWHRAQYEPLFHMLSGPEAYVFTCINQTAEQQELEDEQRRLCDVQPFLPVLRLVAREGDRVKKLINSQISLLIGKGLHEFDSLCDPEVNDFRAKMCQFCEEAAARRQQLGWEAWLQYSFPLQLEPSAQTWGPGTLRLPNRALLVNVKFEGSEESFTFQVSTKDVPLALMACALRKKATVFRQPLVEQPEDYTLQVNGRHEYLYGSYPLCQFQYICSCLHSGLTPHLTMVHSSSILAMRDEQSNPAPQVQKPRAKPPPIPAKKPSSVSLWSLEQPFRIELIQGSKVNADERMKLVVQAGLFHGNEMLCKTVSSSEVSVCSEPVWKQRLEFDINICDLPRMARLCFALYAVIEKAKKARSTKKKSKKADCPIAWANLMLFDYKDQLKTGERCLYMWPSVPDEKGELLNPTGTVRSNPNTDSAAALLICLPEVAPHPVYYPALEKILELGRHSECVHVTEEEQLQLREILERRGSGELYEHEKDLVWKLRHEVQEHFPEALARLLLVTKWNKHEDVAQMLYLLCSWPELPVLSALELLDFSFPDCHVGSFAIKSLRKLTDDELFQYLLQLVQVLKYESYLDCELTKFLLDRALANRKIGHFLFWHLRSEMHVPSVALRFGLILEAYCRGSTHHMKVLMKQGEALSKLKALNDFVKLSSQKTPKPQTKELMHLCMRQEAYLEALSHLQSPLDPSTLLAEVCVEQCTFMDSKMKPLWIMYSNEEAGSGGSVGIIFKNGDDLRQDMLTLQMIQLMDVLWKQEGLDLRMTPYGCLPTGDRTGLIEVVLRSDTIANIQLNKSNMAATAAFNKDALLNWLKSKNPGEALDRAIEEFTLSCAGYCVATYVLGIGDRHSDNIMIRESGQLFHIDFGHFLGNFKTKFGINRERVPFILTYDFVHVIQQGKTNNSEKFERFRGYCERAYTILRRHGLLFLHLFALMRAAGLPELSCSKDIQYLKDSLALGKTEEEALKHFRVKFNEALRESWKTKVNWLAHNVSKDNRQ
T2 sequence (P27986 whole entry partner): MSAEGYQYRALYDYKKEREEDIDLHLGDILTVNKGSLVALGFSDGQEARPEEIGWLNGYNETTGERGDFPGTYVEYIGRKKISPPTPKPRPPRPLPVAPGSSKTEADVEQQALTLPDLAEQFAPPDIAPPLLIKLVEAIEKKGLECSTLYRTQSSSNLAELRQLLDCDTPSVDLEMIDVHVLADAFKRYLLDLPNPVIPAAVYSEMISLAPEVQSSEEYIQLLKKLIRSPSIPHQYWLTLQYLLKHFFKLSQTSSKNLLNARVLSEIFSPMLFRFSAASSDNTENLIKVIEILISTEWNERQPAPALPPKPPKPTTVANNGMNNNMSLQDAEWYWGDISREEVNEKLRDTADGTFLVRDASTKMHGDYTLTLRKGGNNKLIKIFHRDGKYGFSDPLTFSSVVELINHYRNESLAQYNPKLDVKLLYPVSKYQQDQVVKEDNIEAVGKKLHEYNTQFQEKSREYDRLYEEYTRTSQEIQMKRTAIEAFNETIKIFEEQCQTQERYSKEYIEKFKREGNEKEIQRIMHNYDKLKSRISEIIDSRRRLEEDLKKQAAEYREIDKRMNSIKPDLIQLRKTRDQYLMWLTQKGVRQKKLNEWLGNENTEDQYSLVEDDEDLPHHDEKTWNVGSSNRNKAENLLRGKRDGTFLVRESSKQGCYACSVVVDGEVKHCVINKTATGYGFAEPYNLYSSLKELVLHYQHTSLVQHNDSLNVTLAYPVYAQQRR
Method in brief: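 Competitive binding in Jurkat cell lysate (5 mg/ml total protein): test compounds at various concentrations competed with beads bearing immobilized phenylmorpholin-chromen ligand. Bead-bound kinases were eluted and quantified by antibody dot blot with infrared detection; IC50 values came from dose-response curves.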

T1 sequence (P48736 whole entry): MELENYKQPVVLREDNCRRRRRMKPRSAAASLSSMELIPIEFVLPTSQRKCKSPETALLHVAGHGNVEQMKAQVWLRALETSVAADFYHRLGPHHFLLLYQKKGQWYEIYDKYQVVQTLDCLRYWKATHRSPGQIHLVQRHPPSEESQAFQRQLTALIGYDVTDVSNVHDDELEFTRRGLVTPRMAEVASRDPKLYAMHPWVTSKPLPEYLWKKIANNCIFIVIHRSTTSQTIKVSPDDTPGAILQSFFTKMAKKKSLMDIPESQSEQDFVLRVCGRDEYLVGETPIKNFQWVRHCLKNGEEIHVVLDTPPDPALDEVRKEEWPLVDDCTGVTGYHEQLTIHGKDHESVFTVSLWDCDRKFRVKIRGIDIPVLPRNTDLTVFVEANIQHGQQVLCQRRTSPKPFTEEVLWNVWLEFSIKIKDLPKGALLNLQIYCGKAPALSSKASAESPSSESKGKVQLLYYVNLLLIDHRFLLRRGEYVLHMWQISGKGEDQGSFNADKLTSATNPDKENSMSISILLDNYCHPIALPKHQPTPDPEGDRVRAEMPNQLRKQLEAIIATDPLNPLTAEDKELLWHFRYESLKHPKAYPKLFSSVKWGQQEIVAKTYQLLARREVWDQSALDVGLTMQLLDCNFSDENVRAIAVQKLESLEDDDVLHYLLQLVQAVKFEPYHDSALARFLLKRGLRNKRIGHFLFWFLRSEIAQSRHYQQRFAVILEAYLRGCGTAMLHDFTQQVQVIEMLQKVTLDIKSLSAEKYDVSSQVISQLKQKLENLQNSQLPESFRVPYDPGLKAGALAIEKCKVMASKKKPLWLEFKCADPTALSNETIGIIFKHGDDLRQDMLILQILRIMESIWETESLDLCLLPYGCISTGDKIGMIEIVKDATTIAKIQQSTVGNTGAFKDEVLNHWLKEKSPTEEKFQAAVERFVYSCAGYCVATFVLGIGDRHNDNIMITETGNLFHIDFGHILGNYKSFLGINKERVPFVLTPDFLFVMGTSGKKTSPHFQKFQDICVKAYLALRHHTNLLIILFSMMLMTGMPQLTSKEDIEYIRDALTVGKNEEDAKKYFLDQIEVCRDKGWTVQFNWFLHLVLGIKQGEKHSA

Row | SMILES | IC50 [1] [µM] | IC50 [2] [µM]
1 | CCOC(=O)N1Cc2nc(-c3ccc(NC(=O)NC4CC4)cc3F)nc(N3CCOCC3)c2C1 [Example 156, Ethyl 2-(4-(3-cyclopropylureido)-2-fluorophenyl)-4-morpholino-5H-pyrrolo[3,4-d]pyrimidine-6(7H)-carboxylate] | > 10 | > 10
2 | CCNC(=O)Nc1ccc(-c2nc3c(c(N4CCOCC4)n2)CN(C(=O)OC)C3)c(F)c1 [Example 162, methyl 2-(4-(3-ethylureido)-2-fluorophenyl)-4-morpholino-5H-pyrrolo[3,4-d]pyrimidine-6(7H)-carboxylate] | > 10 | 1 to 10
3 | CCNC(=O)Nc1ccc(-c2nc3c(c(N4CCOC[C@@H]4C)n2)CCNC3)c(F)c1 [Example 164, (S)-1-ethyl-3-(3-fluoro-4-(4-(3-methylmorpholino)-5,6,7,8-tetrahydropyrido[3,4-d]pyrimidin-2-yl)phenyl)urea] | > 10 | > 10
4 | CCOC(=O)N1Cc2nc(-c3ccc(NC(=O)NCCO)cc3F)nc(N3CCOC[C@@H]3C)c2C1 [Example 167, (S)-Ethyl 2-(2-fluoro-4-(3-(2-hydroxyethyl)ureido)phenyl)-4-(3-methylmorpholino)-5H-pyrrolo[3,4-d]pyrimidine-6(7H)-carboxylate] | > 10 | 1 to 10
5 | CCOC(=O)N1Cc2nc(-c3ccc(NC(=O)NCCF)cc3F)nc(N3CCOC[C@@H]3C)c2C1 [Example 168, (S)-ethyl 2-(2-fluoro-4-(3-(2-fluoroethyl)ureido)phenyl)-4-(3-methylmorpholino)-5H-pyrrolo[3,4-d]pyrimidine-6(7H)-carboxylate] | > 10 | 1 to 10
6 | CCOC(=O)N1Cc2nc(-c3ccc(NC(=O)NCCF)cc3F)nc(N3CCOCC3)c2C1 [Example 170, ethyl 2-(2-fluoro-4-(3-(2-fluoroethyl)ureido)phenyl)-4-morpholino-5H-pyrrolo[3,4-d]pyrimidine-6(7H)-carboxylate] | > 10 | 1 to 10
7 | CCOC(=O)N1Cc2nc(-c3ccc(NC(=O)NCCO)cc3F)nc(N3CCOCC3)c2C1 [Example 171, ethyl 2-(2-fluoro-4-(3-(2-hydroxyethyl)ureido)phenyl)-4-morpholino-5H-pyrrolo[3,4-d]pyrimidine-6(7H)-carboxylate] | > 10 | > 10
8 | COC(=O)N1Cc2nc(-c3ccc(NC(=O)NC4CC4)cc3F)nc(N3CCOCC3)c2C1 [Example 173, Methyl 2-(4-(3-cyclopropylureido)-2-fluorophenyl)-4-morpholino-5H-pyrrolo[3,4-d]pyrimidine-6(7H)-carboxylate] | > 10 | > 10
9 | CCNC(=O)Nc1ccc(-c2nc3c(c(N4CCOC[C@@H]4C)n2)CCN(C(=O)N(C)C)C3)c(F)c1 [Example 176, (S)-2-(4-(3-ethylureido)-2-fluorophenyl)-N,N-dimethyl-4-(3-methylmorpholino)-5,6-dihydropyrido[3,4-d]pyrimidine-7(8H)-carboxamide] | 1 to 10 | 1 to 10
10 | CC(C)N1Cc2nc(-c3ccc(NC(=O)NCCF)cc3F)nc(N3CCOCC3)c2C1 [Example 185, 1-(3-fluoro-4-(6-isopropyl-4-morpholino-6,7-dihyro-5H-pyrrolo[3,4-d]pyrimidin-2-yl)phenyl)-3-(2-fluoroethyl)urea] | > 10 | 1 to 10
11 | CC(C)N1Cc2nc(-c3ccc(NC(=O)NCCF)cc3F)nc(N3CCOC[C@@H]3C)c2C1 [Example 186, (S)-1-(3-fluoro-4-(6-isopropyl-4-(3-methylmorpholino)-6,7-dihydro-5H-pyrrolo[3,4-d]pyrimidin-2-yl)phenyl)-3-(2-fluoroethyl)urea] | > 10 | 1 to 10
12 | CC(C)N1Cc2nc(-c3ccc(NC(=O)NCCO)cc3F)nc(N3CCOC[C@@H]3C)c2C1 [Example 187, (S)-1-(3-fluoro-4-(6-isopropyl-4-(3-methylmorpholino)-6,7-dihydro-5H-pyrrolo[3,4-d]pyrimidin-2-yl)phenyl)-3-(2-hydroxyethyl)urea] | > 10 | > 10

Next, values leading:

Row | IC50 [1] [µM] | IC50 [2] [µM] | SMILES
13 | > 10 | > 10 | CC(=O)N1Cc2nc(-c3ccc(NC(=O)NC4CC4)cc3F)nc(N3CCOC[C@@H]3C)c2C1 [Example 155, (S)-1-(4-(6-acetyl-4-(3-methylmorpholino)-6,7-dihydro-5H-pyrrolo[3,4-d]pyrimidin-2-yl)-3-fluorophenyl)-3-cyclopropylurea]
14 | > 10 | > 10 | CN1Cc2nc(-c3ccc(NC(=O)NC4CC4)cc3F)nc(N3CCOCC3)c2C1 [Example 159, 1-(Cyclopropyl)-3-(3-fluoro-4-(6-methyl-4-morpholino-6,7-dihydro-5H-pyrrolo[3,4-d]pyrimidin-2-yl)phenyl)urea]
15 | > 10 | > 10 | CCNC(=O)Nc1ccc(-c2nc3c(c(N4CCOC[C@@H]4C)n2)CN(C)C3)c(F)c1 [Example 160, (S)-1-ethyl-3-(3-fluoro-4-(6-methyl-4-(3-methylmorpholino)-6,7-dihydro-5H-pyrrolo[3,4-d]pyrimidin-2-yl)phenyl)urea]
16 | > 10 | > 10 | C[C@H]1COCCN1c1nc(-c2ccc(NC(=O)NC3CC3)cc2F)nc2c1CCNC2 [Example 163, (S)-1-cyclopropyl-3-(3-fluoro-4-(4-(3-methylmorpholino)-5,6,7,8-tetrahydropyrido[3,4-d]pyrimidin-2-yl)phenyl)urea]
17 | > 10 | > 10 | C[C@H]1COCCN1c1nc(-c2ccc(NC(=O)NC3CC3)cc2F)nc2c1CCN(C(=O)N(C)C)C2 [Example 165, (S)-2-(4-(3-cyclopropylureido)-2-fluorophenyl)-N,N-dimethyl-4-(3-methylmorpholino)-5,6-dihydropyrido[3,4-d]pyrimidine-7(8H)-carboxamide]
18 | 1 to 10 | 1 to 10 | CC(C)N1Cc2nc(-c3ccc(NC(=O)NC4CC4)cc3F)nc(N3CCOC[C@@H]3C)c2C1 [Example 172, (S)-1-cyclopropyl-3-(3-fluoro-4-(6-isopropyl-4-(3-methylmorpholino)-6,7-dihydro-5H-pyrrolo[3,4-d]pyrimidin-2-yl)phenyl)urea]
19 | > 10 | > 10 | CC(C)C(=O)N1Cc2nc(-c3ccc(NC(=O)NC4CC4)cc3F)nc(N3CCOC[C@@H]3C)c2C1 [Example 174, (S)-1-cyclopropyl-3-(3-fluoro-4-(6-isobutyryl-4-(3-methylmorpholino)-6,7-dihydro-5H-pyrrolo[3,4-d]pyrimidin-2-yl)phenyl)urea]
20 | > 10 | > 10 | C[C@H]1COCCN1c1nc(-c2ccc(NC(=O)NC3CC3)cc2F)nc2c1CN(S(C)(=O)=O)C2 [Example 177, (S)-1-cyclopropyl-3-(3-fluoro-4-(4-(3-methylmorpholino)-6-(methylsulfonyl)-6,7-dihydro-5H-pyrrolo[3,4-d]pyrimidin-2-yl)phenyl)urea]
21 | > 10 | > 10 | C[C@H]1COCCN1c1nc(-c2ccc(NC(=O)NC3CC3)cc2F)nc2c1CN(C(=O)N(C)C)C2 [Example 178, (S)-2-(4-(3-cyclopropylureido)-2-fluorophenyl)-N,N-dimethyl-4-(3-methylmorpholino)-5H-pyrrolo[3,4-d]pyrimidine-6(7H)-carboxamide]
22 | > 10 | > 10 | CCOC(=O)N1Cc2nc(-c3ccc(NC(=O)NC4CC4)cc3F)nc(N3CCOC[C@H]3C)c2C1 [Example 179, (R)-ethyl 2-(4-(3-cyclopropylureido)-2-fluorophenyl)-4-(3-methylmorpholino)-5H-pyrrolo[3,4-d]pyrimidine-6(7H)-carboxylate]
23 | > 10 | > 10 | COC(=O)N1Cc2nc(-c3ccc(NC(=O)NC4CC4)cc3F)nc(N3CCOC[C@H]3C)c2C1 [Example 180, (R)-methyl 2-(4-(3-cyclopropylureido)-2-fluorophenyl)-4-(3-methylmorpholino)-5H-pyrrolo[3,4-d]pyrimidine-6(7H)-carboxylate]
24 | > 10 | > 10 | COC(=O)N1Cc2nc(-c3ccc(NC(=O)NCCO)cc3F)nc(N3CCOC[C@@H]3C)c2C1 [Example 181, (S)-methyl 2-(2-fluoro-4-(3-(2-hydroxyethyl)ureido)phenyl)-4-(3-methylmorpholino)-5H-pyrrolo[3,4-d]pyrimidine-6(7H)-carboxylate]
25 | > 10 | > 10 | COC(=O)N1Cc2nc(-c3ccc(NC(=O)NCCF)cc3F)nc(N3CCOC[C@@H]3C)c2C1 [Example 183, (S)-methyl 2-(2-fluoro-4-(3-(2-fluoroethyl)ureido)phenyl)-4-(3-methylmorpholino)-5H-pyrrolo[3,4-d]pyrimidine-6(7H)-carboxylate]
26 | > 10 | > 10 | C[C@@H]1COCCN1c1nc(-c2ccc(NC(=O)NC3CC3)cc2F)nc2c1CN(C(=O)C1CC1)C2 [Example 188, (R)-1-(4-(6-(cyclopropanecarbonyl)-4-(3-methylmorpholino)-6,7-dihydro-5H-pyrrolo[3,4-d]pyrimidin-2-yl)-3-fluorophenyl)-3-cyclopropylurea]
27 | > 10 | > 10 | CC(C)NC(=O)N1CCc2c(nc(-c3ccc(NC(=O)NC4CC4)cc3F)nc2N2CCOC[C@@H]2C)C1 [Example 189, (S)-2-(4-(3-cyclopropylureido)-2-fluorophenyl)-N-isopropyl-4-(3-methylmorpholino)-5,6-dihydropyrido[3,4-d]pyrimidine-7(8H)-carboxamide]
28 | > 10 | > 10 | C[C@@H]1COCCN1c1nc(-c2ccc(NC(=O)NC3CC3)cc2F)nc2c1CN(C=O)C2 [Example 190, (R)-1-cyclopropyl-3-(3-fluoro-4-(6-formyl-4-(3-methylmorpholino)-6,7-dihydro-5H-pyrrolo[3,4-d]pyrimidin-2-yl)phenyl)urea]
